Measurements from paper PMC6572064, “Discovery of 2-(1-(3-(4-Chloroxyphenyl)-3-oxo- propyl)pyrrolidine-3-yl)-1H-benzo[d]imidazole-4-carboxamide: A Potent Poly(ADP-ribose) Polymerase (PARP) Inhibitor for Treatment of Cancer” (Molecules, 2019).
Several values for one entry are separate records, joined by “and”; a condition that tells them apart may be missing. Equal values may be shown once. Read-outs that look alike come from different tables or passages of the source.

Assays:
[1] = tested on: CAPAN-1 (a BRCA-2-mutated pancreatic cancer cell line); experiment: Cell proliferation assay, three-day, CellTiter-Glo, CAPAN-1; type: cell-based; conditions: for inhibition at 0.00508 µM: CAPAN-1, Conc. 0.00508 uM; for inhibition at 0.0152 µM: CAPAN-1, Conc. 0.0152 uM; for inhibition at 0.0457 µM: CAPAN-1, Conc. 0.0457 uM; for inhibition at […]: CAPAN-1, Conc. 0.14 uM; for inhibition at 0.41 µM: CAPAN-1, Conc. 0.41 uM; for inhibition at 1.23 µM: CAPAN-1, Conc. 1.23 uM; for inhibition at 3.7 µM: CAPAN-1, Conc. 3.70 uM; for inhibition at 11.11 µM: CAPAN-1, Conc. 11.11 uM; for inhibition at 33.33 µM: CAPAN-1, Conc. 33.33 uM; for inhibition at 100 µM: CAPAN-1, Conc. 100.00 uM
Description: (§1) A three-day assay was conducted. A cell suspension was prepared. Cell density was counted by an automated cell counter and then diluted to the required density, according to seeding density. 50 μL cells were seeded into 384-well plate in growth medium according to the plate map. The cells were incubated at 37 °C, 5% CO2 overnight.
(§2) 200× compound solution in DMSO was prepared and diluted with growth medium to 26× final concentration by addition of 26 μL 200× compounds to 174 μL growth medium. Then 2 μL of diluted compound solution was added to cells and the cell was incubated at 37 °C, 5% CO2 for 72 h.
(§3) The assay plate was equilibrated to room temperature prior to measurement. 15 μL of CellTiter-Glo Reagent was added into each well and the contents were mixed for 2 min on an orbital shaker to induce cell lysis. The cells were incubated at room temperature for 60 min to stabilize luminescent signal. Luminescence was recorded on the Envision system.

[2] = tested on: MDA-MB-436 (a BRCA-1-mutated breast cancer cell line); experiment: Cell proliferation assay, three-day, CellTiter-Glo, MDA-MB-436; type: cell-based; conditions: for inhibition at 0.00508 µM / inhibition at 0.0152 µM / inhibition at 0.0457 µM / inhibition at 0.41 µM / inhibition at 1.23 µM / inhibition at 3.7 µM / inhibition at 11.11 µM / inhibition at 33.33 µM / inhibition at 100 µM / IC50: Homo sapiens; for inhibition at 0.00508 µM: MDA-MB-436, MDA-MB-436, Conc. 0.00508 uM; for inhibition at 0.0152 µM: MDA-MB-436, MDA-MB-436, Conc. 0.0152 uM; for inhibition at 0.0457 µM: MDA-MB-436, MDA-MB-436, Conc. 0.0457 uM; for inhibition at 0.41 µM: MDA-MB-436, MDA-MB-436, Conc. 0.41 uM; for inhibition at 1.23 µM: MDA-MB-436, MDA-MB-436, Conc. 1.23 uM; for inhibition at 3.7 µM: MDA-MB-436, MDA-MB-436, Conc. 3.70 uM; for inhibition at 11.11 µM: MDA-MB-436, MDA-MB-436, Conc. 11.11 uM; for inhibition at 33.33 µM: MDA-MB-436, MDA-MB-436, Conc. 33.33 uM; for inhibition at 100 µM: MDA-MB-436, MDA-MB-436, Conc. 100.00 uM
Description: as §1, §2, §3

[3] = CAPAN-1, curve fit of Inh %, plate 1
[4] = Homo sapiens, replicate 1, read-out: Inh % 1
[5] = Homo sapiens, replicate 2, read-out: Inh % 2

CN[C@@H]1C[C@H]2O[C@@](C)([C@@H]1OC)n1c3ccccc3c3c4c(c5c6ccccc6n2c5c31)C(=O)NC4 [STS, reference compound]
IC50 ([1]; CAPAN-1, 72 h, supplement Summary sheet, read-out: IC50): 0.0647 µM
Bottom [1, 3]: 8.442 and 8.44
HillSlope [1, 3]: 0.6137 and 0.61
Top [1, 3]: 105.1
IC50 ([1]; CAPAN-1, curve fit, plate 1, read-out: IC50): 0.0647 µM

O=C(c1cc(Cc2n[nH]c(=O)c3ccccc23)ccc1F)N1CCN(C(=O)C2CC2)CC1 [pc2, Olaparib, reference compound]
CAPAN-1 IC50 (μM) ([1]; 72 h, CellTiter-Glo): low potency
LogIC50 ([1]; CAPAN-1, curve-fit output, concentration axis Log (uM)): 2.033
IC50 ([1]; Homo sapiens, CAPAN-1, 72 h, CellTiter-Glo, read-out: CAPAN-1 IC50): > 100 µM
inhibition at 0.00508 µM [1, 4]: 1.8%
inhibition at 0.00508 µM [1, 5]: -2%
inhibition at 0.0152 µM [1, 4]: 5.2%
inhibition at 0.0152 µM [1, 5]: -2.3%
inhibition at 0.0457 µM [1, 4]: -6.9%
inhibition at 0.0457 µM [1, 5]: 0.662%
inhibition at […] [1, 4]: 0.107%
inhibition at […] [1, 5]: 6.2%
inhibition at 0.41 µM [1, 4]: 4.3%
inhibition at 0.41 µM [1, 5]: 7.9%
inhibition at 1.23 µM [1, 4]: 15.1%
inhibition at 1.23 µM [1, 5]: 0.6%
inhibition at 3.7 µM [1, 4]: 21.3%
inhibition at 3.7 µM [1, 5]: 11.6%
inhibition at 11.11 µM [1, 4]: 18.6%
inhibition at 11.11 µM [1, 5]: 23.5%
inhibition at 33.33 µM [1, 4]: 38.5%
inhibition at 33.33 µM [1, 5]: 34.2%
inhibition at 100 µM [1, 4]: 48.2%
inhibition at 100 µM [1, 5]: 47.5%
inhibition at 0.00508 µM ([2]; replicate 1, read-out: Inh % 1): 4.1%
inhibition at 0.00508 µM ([2]; replicate 2, read-out: Inh % 2): -2.3%
inhibition at 0.0152 µM ([2]; replicate 1, read-out: Inh % 1): 1.7%
inhibition at 0.0152 µM ([2]; replicate 2, read-out: Inh % 2): -1.2%
inhibition at 0.0457 µM ([2]; replicate 1, read-out: Inh % 1): -5.7%
inhibition at 0.0457 µM ([2]; replicate 2, read-out: Inh % 2): -2.8%
inhibition at 0.41 µM ([2]; replicate 1, read-out: Inh % 1): 0.181%
inhibition at 0.41 µM ([2]; replicate 2, read-out: Inh % 2): 5.7%
inhibition at 1.23 µM ([2]; replicate 1, read-out: Inh % 1): 4%
inhibition at 1.23 µM ([2]; replicate 2, read-out: Inh % 2): 2%
inhibition at 3.7 µM ([2]; replicate 1, read-out: Inh % 1): 12.4%
inhibition at 3.7 µM ([2]; replicate 2, read-out: Inh % 2): 13.5%
inhibition at 11.11 µM ([2]; replicate 1, read-out: Inh % 1): 23.3%
inhibition at 11.11 µM ([2]; replicate 2, read-out: Inh % 2): 24.2%
inhibition at 33.33 µM ([2]; replicate 1, read-out: Inh % 1): 50.1%
inhibition at 33.33 µM ([2]; replicate 2, read-out: Inh % 2): 43.1%
inhibition at 100 µM ([2]; replicate 1, read-out: Inh % 1): 92.4%
inhibition at 100 µM ([2]; replicate 2, read-out: Inh % 2): 90.9%
IC50 ([2]; MDA-MB-436, 72 h, CellTiter-Glo, read-out: MDA-MB-436 IC50): 30.2 µM
IC50 ([2]; MDA-MB-436, 72 h, supplement Summary sheet, read-out: IC50): 30.2 µM
IC50 ([2]; MDA-MB-436, curve-fit parameter list, concentrations in uM, read-out: IC50): 30.2 µM
LogIC50 ([2]; MDA-MB-436, curve-fit parameter list, Log (uM)): 1.481
